{"source": "the RepoRT retention time repository"}
{"test": "RP, Waters CORTECS UPLC C18, 100 × 2.1 mm, 1.6 µm, 40 °C, 0.4 mL/min, estimated dead time 0.55 min; A: water + 0.1% formic acid, pH 3; B: acetonitrile + 0.1% formic acid, pH 3; gradient (min/%B) 0/5 1.12/5 6.41/99.5 10.01/99.5", "conditions": "stereoisomer not certain", "units": {"LC retention time": "min"}}
{"molecule": "COC=C(C(=O)OC)c1ccccc1COc1cccc(C(F)(F)F)n1", "note": "[Picoxystrobin]", "LC retention time": 5.45}
{"molecule": "O=CCc1c[nH]c2ccccc12", "note": "[INDOLEACETALDEHYDE]", "LC retention time": 2.55}
{"molecule": "O=CC(O)C(O)C(O)CO", "note": "(stereo not given) [ARABINOSE]", "LC retention time": 0.798}
{"molecule": "c1ccc2[nH]c(-c3cscn3)nc2c1", "note": "[Thiabendazole]", "LC retention time": 2.53}
{"molecule": "CCCCOC(=O)N(C)SN(C)C(=O)Oc1cccc2c1OC(C)(C)C2", "note": "[Furathiocarb]", "LC retention time": 6.05}
{"molecule": "Cc1ccn2nc(S(=O)(=O)Nc3c(F)cccc3F)nc2n1", "note": "[Flumetsulam]", "LC retention time": 3.43}
{"molecule": "O=C(O)c1ccc2ccccc2n1", "note": "[2-QUINOLINECARBOXYLATE]", "LC retention time": 2.4}
{"molecule": "COP(=O)(OC)C(O)C(Cl)(Cl)Cl", "note": "(stereo not given) [Trichlorfon]", "LC retention time": 3}
{"molecule": "CCC(=O)OC(CC(=O)[O-])C[N+](C)(C)C", "note": "[Propionyl-L-carnitine]", "LC retention time": 0.871}
{"molecule": "COP(=S)(OC)Oc1c(Cl)cc(C)cc1Cl", "note": "[Tolclosof methyl]", "LC retention time": 5.72}
{"molecule": "COC(=O)c1ccccc1S(=O)(=O)NC(=O)Nc1nc(C)nc(OC)n1", "note": "[Metsulfuron-methyl]", "LC retention time": 3.99}
{"molecule": "N[C@@H](Cc1cc(I)c(Oc2ccc(O)cc2)c(I)c1)C(=O)O", "note": "[3,5-DIIODO-L-THYRONINE]", "LC retention time": 3.35}
{"molecule": "CCCCCCCCC=CCCCCCCCC(=O)OC(CC(=O)[O-])C[N+](C)(C)C", "note": "[Oleoyl-L-carnitine]", "LC retention time": 5.63}
{"molecule": "COP(N)(=O)SC", "note": "(stereo not given) [Methamidophos]", "LC retention time": 0.974}
{"molecule": "CCCCN(CCCC)SN(C)C(=O)Oc1cccc2c1OC(C)(C)C2", "note": "[Carbosulfan]", "LC retention time": 6.87}
{"molecule": "O=C(O)c1ccnc2ccccc12", "note": "[4-QUINOLINECARBOXYLATE]", "LC retention time": 0.782}
{"molecule": "CCCCCCC=CC#CCCCCCCCC(=O)O", "note": "[Ximeninic Acid]", "LC retention time": 6.4}
{"molecule": "CSCCC(NC(C)=O)C(=O)O", "note": "(stereo not given) [N-ACETYLMETHIONINE]", "LC retention time": 2.34}
{"molecule": "Cc1ncc2c(c1O)C(=O)OC2", "note": "[4-Pyridoxolactone]", "LC retention time": 0.792}
{"molecule": "CCOC(=O)CCN(Cc1ccccc1)SN(C)C(=O)ON=C(C)SC", "note": "[Alanycarb]", "LC retention time": 5.25}
{"molecule": "CCCCC(C#N)(Cn1cncn1)c1ccc(Cl)cc1", "note": "(stereo not given) [Myclobutanil]", "LC retention time": 4.93}
{"molecule": "CNC(=O)CSP(=O)(OC)OC", "note": "[Omethoate]", "LC retention time": 1.75}
{"molecule": "CCOc1ccc(NC(=O)OC(C)C)cc1OCC", "note": "[Diethofencarb]", "LC retention time": 4.83}
{"molecule": "O=C(O)Cc1c[nH]c2ccccc12", "note": "[3-Indoleacetic acid]", "LC retention time": 3.4}
{"molecule": "COCC(=O)N(c1c(C)cccc1C)C(C)C(=O)OC", "note": "(stereo not given) [Metalaxyl]", "LC retention time": 4.33}
{"molecule": "COC(=O)Cc1c[nH]c2ccccc12", "note": "[INDOLE-3-METHYL ACETATE]", "LC retention time": 4.14}
{"molecule": "CCCCCCCCCC(O)CC(=O)OC(CC(=O)[O-])C[N+](C)(C)C", "note": "[[(3R)-3-Hydroxydodecanoyl]-L-carnitine]", "LC retention time": 4.2}
{"molecule": "CC(CCC(=O)O)C1CCC2C3CCC4CC(O)CCC4(C)C3CC(O)C12C", "note": "(stereo not given) [Deoxycholic acid]", "LC retention time": 5.22}
{"molecule": "CCOP(=S)(OCC)SCSP(=S)(OCC)OCC", "note": "[Ethion]", "LC retention time": 6.19}
{"molecule": "CCOC(=O)CCN(SN(C)C(=O)Oc1cccc2c1OC(C)(C)C2)C(C)C", "note": "[Benfuracarb]", "LC retention time": 6.01}
{"molecule": "CCOC(=O)C(SP(=S)(OC)OC)c1ccccc1", "note": "(stereo not given) [Phenthoate]", "LC retention time": 5.54}
{"molecule": "CC(CCC(=O)NCC(=O)O)C1CCC2C3CC(O)C4CC(O)CCC4(C)C3CCC12C", "note": "(stereo not given) [Glycohyodeoxycholic acid]", "LC retention time": 4.08}
{"molecule": "NC(Cc1cc(I)c(Oc2cc(I)c(O)c(I)c2)c(I)c1)C(=O)O", "note": "(stereo not given) [THYROXINE]", "LC retention time": 3.97}
{"molecule": "CC(CC(=O)[O-])CC(=O)OC(CC(=O)O)C[N+](C)(C)C", "note": "(stereo not given) [3-Methylglutarylcarnitine]", "LC retention time": 2.25}
{"molecule": "Cc1c[nH]c(=O)[nH]c1=O", "note": "[THYMINE]", "LC retention time": 0.792}
{"molecule": "COC(=O)CCCC(=O)O", "note": "[MONOMETHYLGLUTARATE]", "LC retention time": 2.47}
{"molecule": "CCC(C)C(=O)NCC(=O)O", "note": "(stereo not given) [N-(2-Methylbutyryl)glycine]", "LC retention time": 2.27}
{"molecule": "CC1=C(C(=O)Nc2ccccc2)SCCO1", "note": "[Carboxin]", "LC retention time": 4.3}
{"molecule": "Clc1ccccc1-c1nnc(-c2ccccc2Cl)nn1", "note": "[Clofentezine]", "LC retention time": 5.65}
{"molecule": "O=C(O)C=Cc1c[nH]c2ccccc12", "note": "[3-Indoleacrylic acid]", "LC retention time": 3.58}
{"molecule": "O=C(O)c1c[nH]c2ccccc12", "note": "[Indole-3-carboxylic acid]", "LC retention time": 3.21}
{"molecule": "COC(=O)N(OC)c1ccccc1COc1ccn(-c2ccc(Cl)cc2)n1", "note": "[Pyraclostrobin]", "LC retention time": 5.6}
{"molecule": "CCCC(Cn1cncn1)c1ccc(Cl)cc1Cl", "note": "(stereo not given) [Penconazole]", "LC retention time": 5.19}
{"molecule": "NC(Cc1cc(I)c(Oc2ccc(O)c(I)c2)c(I)c1)C(=O)O", "note": "(stereo not given) [LIOTHYRONINE]", "LC retention time": 3.71}
{"molecule": "CON=C(C(=O)OC)c1ccccc1CON=C(C)c1cccc(C(F)(F)F)c1", "note": "[Trifloxystrobin]", "LC retention time": 5.81}
{"molecule": "COC(=O)c1sccc1S(=O)(=O)NC(=O)Nc1nc(C)nc(OC)n1", "note": "[Thifensulfurson methyl]", "LC retention time": 3.9}
{"molecule": "O=C(NCc1ncc(C(F)(F)F)cc1Cl)c1c(Cl)cccc1Cl", "note": "[Fluopicolide]", "LC retention time": 5.06}
{"molecule": "CSC(C)=NOC(=O)N(C)SN(C)C(=O)ON=C(C)SC", "note": "[Thiodicarb]", "LC retention time": 4}
{"molecule": "CNC(=O)N(C)c1nnc(C(C)(C)C)s1", "note": "[Tebuthiuron]", "LC retention time": 3.68}
{"molecule": "CC(C)C(=O)OC(CC(=O)[O-])C[N+](C)(C)C", "note": "[Isobutyryl-L-carnitine]", "LC retention time": 1.79}
{"molecule": "Cc1cc2nc3[nH]c(=O)[nH]c(=O)c3nc2cc1C", "note": "[LUMICHROME]", "LC retention time": 3.26}
{"molecule": "CCOP(=S)(OCC)Oc1cc(C)nc(C(C)C)n1", "note": "[Diazinon]", "LC retention time": 5.73}
{"molecule": "CCCCCCCCSC(=O)Oc1cc(Cl)nnc1-c1ccccc1", "note": "[Pyridat]", "LC retention time": 6.78}
{"molecule": "CCCCc1c(C)nc(NCC)[nH]c1=O", "note": "[Ethirimol]", "LC retention time": 3.01}
{"molecule": "O=Cc1ccc(O)cc1", "note": "[4-HYDROXYBENZALDEHYDE]", "LC retention time": 2.13}
{"molecule": "NC(=O)[C@@H](N)Cc1c[nH]c2ccccc12", "note": "[L-TRYPTOPHANAMIDE]", "LC retention time": 1.79}
{"molecule": "CC1(C)CCC(Cc2ccc(Cl)cc2)C1(O)Cn1cncn1", "note": "(stereo not given) [Metconazole]", "LC retention time": 5.24}
{"molecule": "Cc1cnc2c(C(=O)O)c(Cl)ccc2c1", "note": "[Quinmerac]", "LC retention time": 3.17}
{"molecule": "CCCCCC(=O)OC(CC(=O)[O-])C[N+](C)(C)C", "note": "[Hexanoyl-L-carnitine]", "LC retention time": 3.05}
{"molecule": "O=C(O)c1cc(=O)c2cccc(O)c2[nH]1", "note": "[XANTHURENATE]", "LC retention time": 2.15}
{"molecule": "O=c1[nH]c(=O)c2[nH]c(=O)[nH]c2[nH]1", "note": "[URATE]", "LC retention time": 0.727}
{"molecule": "Nc1cc(C(=O)O)ccc1O", "note": "[3-AMINO-4-HYDROXYBENZOATE]", "LC retention time": 0.722}
{"molecule": "CN1COCN(Cc2cnc(Cl)s2)C1=N[N+](=O)[O-]", "note": "[Thiametoxam]", "LC retention time": 2.87}
{"molecule": "CC(C)(C)C(=O)C(Oc1ccc(Cl)cc1)n1cncn1", "note": "(stereo not given) [Triadimefon]", "LC retention time": 4.95}
{"molecule": "CC1NC(=O)NC1CCCCCC(=O)O", "note": "(stereo not given) [DETHIOBIOTIN]", "LC retention time": 2.9}
{"molecule": "CC(C)(C)N(NC(=O)c1ccc(Cl)cc1)C(=O)c1ccccc1", "note": "[Halofenozide]", "LC retention time": 4.84}
{"molecule": "Nc1cnn(-c2ccccc2)c(=O)c1Cl", "note": "[Chloridazon]", "LC retention time": 3.17}
{"molecule": "N[C@@H](Cc1cc(I)c(O)c(I)c1)C(=O)O", "note": "[3,5-DIIODO-L-TYROSINE]", "LC retention time": 2.69}
{"molecule": "CCN(Cc1ccc(Cl)nc1)C(=C[N+](=O)[O-])NC", "note": "[Nitenpyram]", "LC retention time": 2.6}
{"molecule": "CCCCCCCCCCCC[n+]1cccc(S(=O)(=O)[O-])c1", "note": "[C12-APS]", "LC retention time": 4.89}
{"molecule": "Cn1c(=O)[nH]c2ncn(C)c2c1=O", "note": "[PARAXANTHINE]", "LC retention time": 2.15}
{"molecule": "Nc1nc2ncc(CNc3ccc(C(=O)NC(CCC(=O)O)C(=O)O)cc3)nc2c(=O)[nH]1", "note": "(stereo not given) [FOLATE]", "LC retention time": 2.38}
{"molecule": "CCN(CC)C(=O)C(Cl)=C(C)OP(=O)(OC)OC", "note": "(mixture of isomers) [Phospamidon (Mix of isomers)]", "LC retention time": 3.69}
{"molecule": "CC12CCC(O)CC1CCC1C2CC(O)C2(C)C(C3=CC(=O)OC3)CCC12O", "note": "(stereo not given) [Digoxigenin]", "LC retention time": 2.45}
{"molecule": "CCc1ccc(C(=O)NN(C(=O)c2cc(C)cc(C)c2)C(C)(C)C)cc1", "note": "[Tebufenozide]", "LC retention time": 5.33}
{"molecule": "O=C(O)CNC(=O)C=Cc1ccccc1", "note": "[N-(CINNAMOYL)GLYCINE]", "LC retention time": 3.26}
{"molecule": "CCOP(=S)(OCC)Oc1cnc2ccccc2n1", "note": "[Quinalfos]", "LC retention time": 5.44}
{"molecule": "CC(C)(C)C(O)(CCc1ccc(Cl)cc1)Cn1cncn1", "note": "(stereo not given) [Tebuconazole]", "LC retention time": 5.06}
{"molecule": "CC(C)C1CCC(Cc2ccc(Cl)cc2)C1(O)Cn1cncn1", "note": "(stereo not given) [Ipconazole]", "LC retention time": 5.48}
{"molecule": "CNC(=O)CSP(=S)(OC)OC", "note": "[Dimethoate]", "LC retention time": 3.27}
{"molecule": "CC(CCC(=O)O)C1CCC2C3C(=O)CC4CC(O)CCC4(C)C3CCC12C", "note": "(stereo not given) [Nutriacholic Acid]", "LC retention time": 4.8}
{"molecule": "CCCCCCSCC(NC(=O)CCC(N)C(=O)O)C(=O)NCC(=O)O", "note": "(stereo not given) [S-HEXYL-GLUTATHIONE]", "LC retention time": 3.31}
{"molecule": "Nc1nc2c(ncn2C2OC(CO)C(O)C2O)c(=O)[nH]1", "note": "(stereo not given) [GUANOSINE]", "LC retention time": 0.76}
{"molecule": "CNC(=O)ON=C(CSC)C(C)(C)C", "note": "[Thiofanox]", "LC retention time": 4.76}
{"molecule": "CC(C)(C)C(O)C(Cc1ccc(Cl)cc1)n1cncn1", "note": "(stereo not given) [Paclobutrazol]", "LC retention time": 4.7}
{"molecule": "CNC(=O)N(C)c1nc2ccccc2s1", "note": "[Methabenzthiazurone]", "LC retention time": 4.12}
{"molecule": "C[Si](Cn1cncn1)(c1ccc(F)cc1)c1ccc(F)cc1", "note": "[Flusilazole]", "LC retention time": 5.06}
{"molecule": "C[C@H](CCC(=O)O)[C@H]1CC[C@H]2[C@@H]3CC[C@@H]4CC(=O)CC[C@]4(C)[C@H]3CC[C@]12C", "note": "[3-Oxo-5β-cholanoic Acid]", "LC retention time": 6.05}
{"molecule": "NC(=O)Cc1c[nH]c2ccccc12", "note": "[INDOLE-3-ACETAMIDE]", "LC retention time": 2.89}
{"molecule": "CC(CCC(=O)NCCS(=O)(=O)O)C1CCC2C3C(O)CC4CC(O)CCC4(C)C3CCC12C", "note": "(stereo not given) [Tauroursodeoxycholic acid]", "LC retention time": 4.18}
